From patent US10670605B2, “Cysteine reactive probes and uses thereof” (The Scripps Research Institute, priority 2015, dated 2020) come the findings set out here.

Holding throughout (test): Competitive isoTOP-ABPP, cell lysates
What all share (format): binding
Holding throughout (details): 500 μm, in-vitro_ramos_231

One test addresses PRMT1 C109 (Q99873) (Homo sapiens, UniProt Q99873). The protocol: (§1) TEV digests were pressure loaded onto a 250 μm (inner diameter) fused silica capillary column packed with C18 resin (Aqua 5 μm, Phenomenex). The samples were analyzed by multidimensional liquid chromatography tandem mass spectrometry (MudPIT), using an LTQ-Velos Orbitrap mass spectrometer (Thermo Scientific) coupled to an Agilent 1200-series quaternary pump. The peptides were eluted onto a biphasic column with a 5 μm tip (100 μm fused silica, packed with C18 (10 cm) and bulk strong cation exchange resin (3 cm, SCX, Phenomenex,)) in a 5-step MudPIT experiment, using 0%, 30%, 60%, 90%, and 100% salt bumps of 500 mM aqueous ammonium acetate and using a gradient of 5-100% buffer B in buffer A (buffer A: 95% water, 5% acetonitrile, 0.1% formic acid; buffer B: 5% water, 95% acetonitrile, 0.1% formic acid) as has been described in Weerapana et al. Nat Protoc 2:1414-1425 (2007). Data was collected in data-dependent acquisition mode with dynamic exclusion enabled (20 s, repeat of 2). One full MS (MS1) scan (400-1800 m/z) was followed by 30 MS2 scans (ITMS) of the nth most abundant ions.
(§2) The ratios of heavy/light for each unique peptide (DMSO/compound treated; isoTOP-ABPP ratios, R values) were quantified with in-house CIMAGE software, using default parameters (3 ms s per peak and signal to noise threshold 2.5). Site-specific engagement of electrophilic fragments was assessed by blockade of IA-alkyne probe labeling. […] Ratios for unique peptide entries were calculated for each experiment; overlapping peptides with the same modified cysteine (e.g. different charge states, MudPIT chromatographic steps or tryptic termini) were grouped together and the median ratio was reported as the final ratio (R). The peptide ratios reported by CIMAGE were further filtered to ensure the removal or correction of low quality ratios in each individual dataset. The quality filters applied were the following: removal of half tryptic peptides; for ratios with high standard deviations from the median (90% of the median or above) the lowest ratio was taken instead of the median; removal of peptides with R=20 and only a single ms2 event triggered during the elution of the parent ion; manual annotation of all the peptides with ratios of 20, removing any peptides with low-quality elution profiles that remained after the previous curation steps. Proteome reactivity values for individual fragments were computed as the percentage of the total quantified cysteine-containing peptides with R values≥4 (defined as liganded cysteines) for each replicate experiment and the final proteome reactivity value was calculated as the mean for all replicate experiments for each fragment from both MDA-MB-231 and Ramos cellular proteomes.
(§3) Biological replicates of the same compound and cell-line were averaged if the standard deviation was below 60% of the mean; otherwise the lowest value of the ratio set was taken.

The next test has as its target GNB2L1 C182 (P63244) (Homo sapiens, UniProt P63244). The protocol:
as §1, §2, §3

In another test the target is IDH1 C269 (O75874) (Homo sapiens, UniProt O75874). The protocol: as §1, §2, §3
IDH1 C269 (O75874), sequence (O75874 whole entry): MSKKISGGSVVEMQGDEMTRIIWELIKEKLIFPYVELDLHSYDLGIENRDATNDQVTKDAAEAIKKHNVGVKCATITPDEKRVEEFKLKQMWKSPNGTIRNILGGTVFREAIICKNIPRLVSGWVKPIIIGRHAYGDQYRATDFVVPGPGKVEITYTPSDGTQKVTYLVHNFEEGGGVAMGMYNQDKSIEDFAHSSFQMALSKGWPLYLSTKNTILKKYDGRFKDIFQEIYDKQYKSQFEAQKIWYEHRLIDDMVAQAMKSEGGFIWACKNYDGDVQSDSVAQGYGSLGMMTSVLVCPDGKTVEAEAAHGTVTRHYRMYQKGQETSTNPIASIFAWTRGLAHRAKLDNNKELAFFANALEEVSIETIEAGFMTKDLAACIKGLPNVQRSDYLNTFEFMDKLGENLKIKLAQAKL
Another test addresses T1, IDH2 C308 (P48735) (Homo sapiens, UniProt P48735).
T1 sequence (P48735 40-452): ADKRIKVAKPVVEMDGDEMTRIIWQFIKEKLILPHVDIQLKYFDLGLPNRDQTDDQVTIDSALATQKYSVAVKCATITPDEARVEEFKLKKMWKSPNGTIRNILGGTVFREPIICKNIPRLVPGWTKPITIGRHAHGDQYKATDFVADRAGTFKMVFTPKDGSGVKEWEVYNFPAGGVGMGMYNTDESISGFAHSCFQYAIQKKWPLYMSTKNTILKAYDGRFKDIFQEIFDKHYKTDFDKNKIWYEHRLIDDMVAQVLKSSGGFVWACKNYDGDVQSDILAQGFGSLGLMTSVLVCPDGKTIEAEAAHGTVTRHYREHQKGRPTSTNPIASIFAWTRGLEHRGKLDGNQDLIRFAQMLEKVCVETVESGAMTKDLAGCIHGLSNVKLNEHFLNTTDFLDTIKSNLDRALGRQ
The procedure:
as §1, §2, §3

A further test deals with XPO1 C34 (O14980) (Homo sapiens, UniProt O14980). The protocol: as §1, §2, §3
XPO1 C34 (O14980), sequence (O14980 whole entry): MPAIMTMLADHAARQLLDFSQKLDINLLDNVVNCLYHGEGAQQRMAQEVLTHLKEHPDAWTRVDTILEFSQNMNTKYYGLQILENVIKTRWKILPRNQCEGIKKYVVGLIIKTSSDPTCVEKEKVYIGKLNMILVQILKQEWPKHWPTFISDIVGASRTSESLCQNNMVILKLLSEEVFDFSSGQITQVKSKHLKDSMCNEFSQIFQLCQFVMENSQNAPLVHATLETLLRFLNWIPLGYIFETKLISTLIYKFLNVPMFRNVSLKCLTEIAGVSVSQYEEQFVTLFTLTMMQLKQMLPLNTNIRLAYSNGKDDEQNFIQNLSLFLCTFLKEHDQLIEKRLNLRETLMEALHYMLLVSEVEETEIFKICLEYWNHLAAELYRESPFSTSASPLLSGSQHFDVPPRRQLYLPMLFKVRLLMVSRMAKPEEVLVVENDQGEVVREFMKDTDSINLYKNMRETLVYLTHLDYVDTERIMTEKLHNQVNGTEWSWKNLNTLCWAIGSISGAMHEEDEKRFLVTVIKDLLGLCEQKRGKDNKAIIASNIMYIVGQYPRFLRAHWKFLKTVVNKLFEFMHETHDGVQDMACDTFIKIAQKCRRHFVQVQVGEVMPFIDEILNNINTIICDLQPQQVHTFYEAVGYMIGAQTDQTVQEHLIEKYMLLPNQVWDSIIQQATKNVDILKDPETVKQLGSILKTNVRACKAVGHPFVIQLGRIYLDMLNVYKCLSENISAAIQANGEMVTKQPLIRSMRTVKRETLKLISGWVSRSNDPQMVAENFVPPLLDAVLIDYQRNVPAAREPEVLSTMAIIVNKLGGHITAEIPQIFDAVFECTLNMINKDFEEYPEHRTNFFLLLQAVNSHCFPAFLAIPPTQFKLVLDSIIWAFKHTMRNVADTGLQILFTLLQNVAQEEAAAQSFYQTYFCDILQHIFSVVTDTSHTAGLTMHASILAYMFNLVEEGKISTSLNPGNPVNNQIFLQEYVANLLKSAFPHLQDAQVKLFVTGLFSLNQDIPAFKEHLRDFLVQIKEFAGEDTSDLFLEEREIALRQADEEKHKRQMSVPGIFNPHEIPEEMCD
The target of a further test is GSTP1 C48 (P09211) (Homo sapiens, UniProt P09211). The procedure:
as §1, §2, §3

The target of the next test is T2, ACAT1 C413 (P24752) (Homo sapiens, UniProt P24752).
T2 sequence (P24752 34-427): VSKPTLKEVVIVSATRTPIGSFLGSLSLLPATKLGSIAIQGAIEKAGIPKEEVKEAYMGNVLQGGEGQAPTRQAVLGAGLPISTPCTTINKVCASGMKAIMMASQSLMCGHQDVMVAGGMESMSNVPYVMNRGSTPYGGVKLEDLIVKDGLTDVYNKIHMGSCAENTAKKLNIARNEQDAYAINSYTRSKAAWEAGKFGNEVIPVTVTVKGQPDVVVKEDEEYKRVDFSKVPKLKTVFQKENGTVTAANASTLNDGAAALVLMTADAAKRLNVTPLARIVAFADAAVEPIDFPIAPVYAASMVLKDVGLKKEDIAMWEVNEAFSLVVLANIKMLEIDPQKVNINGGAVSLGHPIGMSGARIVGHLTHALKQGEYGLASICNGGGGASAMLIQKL

A further test deals with T3, ACAT1 C119 (P24752) (Homo sapiens, UniProt P24752).
T3 sequence (P24752 34-427): T2 sequence (P24752 34-427)

A further test has as its target T4, ACAT1 C196 (P24752) (Homo sapiens, UniProt P24752).
T4 sequence (P24752 34-427): T2 sequence (P24752 34-427)

PRMT1 C109 (Q99873), sequence (Q99873 whole entry, the tested form may be a part): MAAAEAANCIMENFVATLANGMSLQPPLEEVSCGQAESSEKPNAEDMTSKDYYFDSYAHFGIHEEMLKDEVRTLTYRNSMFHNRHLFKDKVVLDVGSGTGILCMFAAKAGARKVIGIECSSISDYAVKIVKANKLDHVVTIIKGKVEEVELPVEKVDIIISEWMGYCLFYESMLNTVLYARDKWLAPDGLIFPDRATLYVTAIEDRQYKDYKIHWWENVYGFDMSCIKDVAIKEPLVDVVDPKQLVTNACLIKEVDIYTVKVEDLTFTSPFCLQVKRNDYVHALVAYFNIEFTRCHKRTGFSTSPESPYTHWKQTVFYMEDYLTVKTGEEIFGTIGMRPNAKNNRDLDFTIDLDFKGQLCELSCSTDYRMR
GSTP1 C48 (P09211), sequence (P09211 whole entry): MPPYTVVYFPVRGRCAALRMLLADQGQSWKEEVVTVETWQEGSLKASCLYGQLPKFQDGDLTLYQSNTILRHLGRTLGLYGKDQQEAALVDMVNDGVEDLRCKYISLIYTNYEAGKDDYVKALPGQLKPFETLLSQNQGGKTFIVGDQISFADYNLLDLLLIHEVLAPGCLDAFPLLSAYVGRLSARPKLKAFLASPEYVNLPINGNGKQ

`O=C(CCl)Nc1cc(C(=O)O)cc(C(F)(F)F)c1` [compound 36]: at PRMT1 C109 (Q99873), the “isoTOP-ABPP reactivity ratio, Q99873_C109” value is recorded as 1.0. At GNB2L1 C182 (P63244), the “isoTOP-ABPP reactivity ratio, P63244_C182” value came out at 1.3. The “isoTOP-ABPP reactivity ratio, O75874_C269” value at IDH1 C269 (O75874) was 1.7. The “isoTOP-ABPP reactivity ratio, P48735_C308” value on IDH2 C308 (P48735) is 1.3. Besides, at XPO1 C34 (O14980), the “isoTOP-ABPP reactivity ratio, O14980_C34” value is listed as 1.3. For the same compound, the “isoTOP-ABPP reactivity ratio, P09211_C48” value on GSTP1 C48 (P09211) was found to be 1.6. The “isoTOP-ABPP reactivity ratio, P24752_C413” value at ACAT1 C413 (P24752) was 2.7. At ACAT1 C119 (P24752), the “isoTOP-ABPP reactivity ratio, P24752_C119” value stood at 1.2. Further, the “isoTOP-ABPP reactivity ratio, P24752_C196” value on ACAT1 C196 (P24752) amounted to 1.5.
